Assays:
[1] = Miscibility / self-emulsification test modelling ICH dissolution testing; type: physicochemical; conditions: 1 g of 100% or 75% preparation in 1 L PBS with […] curcumin, 37° C., stirring 300 rpm 10 min, then 10 min without stirring
Experimental: To assess whether oleic acid could self-emulsify at the concentrations used in the disclosed pharmaceutical compositions, experiments was performed that were designed to model dissolution testing according to International Council for Harmonisation (ICH) guidelines. […] Miscibility experiments were performed using two concentrations of oleic acid nominally above the CMC concentration for this fatty acid. In one series of experiments, 1 g of 100% oleic acid was added to the dissolution media. The control compound was 1 g of 100% MAISINE™ CC. In a second series of experiments 1 g of 75% oleic acid (diluted with 250 mg of MAISINE™ CC) was added to the dissolution media. The control compound was 1 g of 75% MAISINE™ CC. The miscibility of oleic acid and MAISINE™ CC was assessed by observing the dissolution media for 10 minutes with constant stirring and then 10 minutes without stirring. Photographs were taken at time 0, 1, 2, 3, 4, 5 and 10 minutes during the stirring phase and 2, 4 and 10 minutes after stirring ceased.

[2] = Solubility of olaparib in glycerolipids with and without digestion enhancers; type: physicochemical; conditions: 55 mg in 1 g of only MAISINE CC, only GELUCIRE 43/01, or their admixture, 130° C., stirred at least 60 minutes

| miscibility in dissolution media [1] | solubility of olaparib in glycerolipids without digestion enhancers [2] | SMILES |
| --- | --- | --- |
| not miscible |  | CCCCCCCC/C=C\CCCCCCCC(=O)O [oleic acid] |
|  | remained insoluble | O=C(c1cc(Cc2n[nH]c(=O)c3ccccc23)ccc1F)N1CCN(C(=O)C2CC2)CC1 [olaparib] |

Reference: patent US20250195433A1, “Compositions Having Improved Bioavailability of Therapeutics and Uses Thereof” (TRx Biosciences Limited, priority 2022, published 2025)
